In patent publication US20030059483A1, “Color stable hypochlorous sanitizer and methods” (priority 1999, published 2003):

How the values were obtained:
Type in all cases: physicochemical
[1] = Chlorine stability of acid sanitizer solutions; details: chlorine 12 ppm, pH 5.13
[2] = Dye and chlorine stability test, effect of pH; details: 1 ppm dye; for Initial Color/Appearance: additional formulations; for Initial Color/Appearance / Time needed for solution to become colorless: 100 ppm active chlorine; for Color/Appearance: initial 100 ppm chlorine
[3] = Color longevity at varying active chlorine and dye level, pH 5.8; details: for Initial Color/Appearance / Time needed for solution to become colorless: 1 ppm dye

Compound: Chlorinated trisodium phosphate [Chlorinated TSP]
- Chlorine (ppm) Conc. 0 Time ([1]; 0 time): 12.7 ppm
- Chlorine (ppm) Conc. 4 Hours ([1]; 4 hours): 9.93 ppm
- Chlorine (ppm) Conc. 24 Hours ([1]; 24 hours): 5.67 ppm

Compound: COc1cc(S(=O)(=O)[O-])c(C)cc1N=Nc1c(O)ccc2cc(S(=O)(=O)[O-])ccc12.[Na+].[Na+] [FD&C Red #40]
- Initial Color/Appearance ([2]; pH buffered at 2): colorless
- Initial Color/Appearance ([2]; pH buffered at 4): visible color
- Initial Color/Appearance ([2]; pH buffered at 5.4): visible color
- Initial Color/Appearance ([2]; pH buffered at 5.8): visible color
- Initial Color/Appearance ([2]; pH buffered at 6): visible color
- Initial Color/Appearance ([2]; pH buffered at 8): visible color
- Initial Color/Appearance ([2]; pH buffered at 10): colorless
- Initial Color/Appearance ([2]; pH buffered at 12): colorless
- Color/Appearance ([2]; pH buffered at 2, 0.0 hours): color gone immediately
- Time needed for solution to become colorless ([2]; pH buffered at 2): none
- Color/Appearance ([2]; pH buffered at 2, 175 hours): no color
- Time needed for solution to become colorless ([2]; pH buffered at 4): 2.5 h
- Color/Appearance ([2]; pH buffered at 4, 2.5 hours): color gone
- Color/Appearance ([2]; pH buffered at 4, 175 hours): no color
- Time needed for solution to become colorless ([2]; pH buffered at 5.4): 15 h
- Time needed for solution to become colorless ([2]; pH buffered at 5.8): 5.0 h
- Time needed for solution to become colorless ([2]; pH buffered at 6): 4.0 h
- Color/Appearance ([2]; pH buffered at 6, 5.0 hours): slightly visible
- Color/Appearance ([2]; pH buffered at 6, 175 hours): no color
- Time needed for solution to become colorless ([2]; pH buffered at 8): 0.25 h
- Color/Appearance ([2]; pH buffered at 8, 0.25 hours): color gone
- Color/Appearance ([2]; pH buffered at 8, 175 hours): no color
- Color/Appearance ([2]; pH buffered at 10, 0.0 hours): color gone immediately
- Time needed for solution to become colorless ([2]; pH buffered at 10): none
- Color/Appearance ([2]; pH buffered at 10, 175 hours): no color
- Color/Appearance ([2]; pH buffered at 12, 0.0 hours): color gone immediately
- Time needed for solution to become colorless ([2]; pH buffered at 12): none
- Color/Appearance ([2]; pH buffered at 12, 175 hours): no color
- Initial Color/Appearance ([3]; 10 ppm available chlorine): visible
- Time needed for solution to become colorless ([3]; 10 ppm available chlorine): more than 6.0 hours
- Initial Color/Appearance ([3]; 30 ppm available chlorine): visible
- Time needed for solution to become colorless ([3]; 30 ppm available chlorine): 6.0 h
- Initial Color/Appearance ([3]; 50 ppm available chlorine): visible
- Time needed for solution to become colorless ([3]; 50 ppm available chlorine): 5.0 h
- Initial Color/Appearance ([3]; 80 ppm available chlorine): visible
- Time needed for solution to become colorless ([3]; 80 ppm available chlorine): 4.5 h
- Initial Color/Appearance ([3]; 100 ppm available chlorine): visible
- Time needed for solution to become colorless ([3]; 100 ppm available chlorine): 3.0 h
- relationship between dye concentration and color longevity ([3]; dye level 0.1 to 0.4 wt-%, 100 ppm available chlorine): linear relationship between dye concentration and color longevity
